Target: T1, Na^+ /H^+ exchanger (Rattus norvegicus, UniProt P26431)
T1 construct: endogenous in cells; host or cells: thymocytes freshly isolated from the thymus of a male SD (Sprague-Dawley) rat
Assay: Inhibitory activity on Na^+ /H^+ exchange in cells (thymocyte swelling in sodium propionate medium)
Format: cell-based
Settings: apparent Ki, Lineweaver-Burk plot; rate of swelling of thymocytes (male SD strain); sodium-propionate medium pH 6.8; 0.1% DMSO; 3-5 concentrations
Procedure: [2] Inhibitory activity on Na^+ /H^+ exchange in cells
Procedure was carried out according to a similar manner to the method described in Enzymology 173, 777 (1989).
One male SD strain weighing 250-300 g was sacrificed with the blow on the head. Then, the thymus was removed into ice-cold NaCl medium (140 mM sodium chloride, 1 mM potassium chloride, 1 mM calcium chloride, 1 mM magnesium chloride, 10 mM glucose and 20 mM N-2-hydroxyethylpiperazine-N'-2-ethanesulfonic acid (HEPES) - - - pH 7.3), cut in small fragments, and transferred to glass homogenizer. The cells were dissociated by gentle strokes, and the resulting suspension was filtrated through six layers of surgical gauze and the filtrate was centrifuged at 4° C. at 1000 g for 5 minutes. The pellet was resuspended in RPMI 1640 medium (pH 7.3) at room temperature to adjust final cell concentration (1×10^7 cells/ml).
This method detects the swelling that accompanies activation of Na^+ /H^+ exchanger in cells incubated with sodium propionate. Propionic acid rapidly penetrates through the membrane. […]
Cell sizing and counting were performed electrically with the Coulter Counter-Channelyzer (AT-II). […] Rate of Swelling (volume/min.) was measured by using 3-5 concentrations of test compound. Then, apparent Ki value of test compound was calculated by using Line weaver-Burk plot.

T1 sequence (P26431 whole entry): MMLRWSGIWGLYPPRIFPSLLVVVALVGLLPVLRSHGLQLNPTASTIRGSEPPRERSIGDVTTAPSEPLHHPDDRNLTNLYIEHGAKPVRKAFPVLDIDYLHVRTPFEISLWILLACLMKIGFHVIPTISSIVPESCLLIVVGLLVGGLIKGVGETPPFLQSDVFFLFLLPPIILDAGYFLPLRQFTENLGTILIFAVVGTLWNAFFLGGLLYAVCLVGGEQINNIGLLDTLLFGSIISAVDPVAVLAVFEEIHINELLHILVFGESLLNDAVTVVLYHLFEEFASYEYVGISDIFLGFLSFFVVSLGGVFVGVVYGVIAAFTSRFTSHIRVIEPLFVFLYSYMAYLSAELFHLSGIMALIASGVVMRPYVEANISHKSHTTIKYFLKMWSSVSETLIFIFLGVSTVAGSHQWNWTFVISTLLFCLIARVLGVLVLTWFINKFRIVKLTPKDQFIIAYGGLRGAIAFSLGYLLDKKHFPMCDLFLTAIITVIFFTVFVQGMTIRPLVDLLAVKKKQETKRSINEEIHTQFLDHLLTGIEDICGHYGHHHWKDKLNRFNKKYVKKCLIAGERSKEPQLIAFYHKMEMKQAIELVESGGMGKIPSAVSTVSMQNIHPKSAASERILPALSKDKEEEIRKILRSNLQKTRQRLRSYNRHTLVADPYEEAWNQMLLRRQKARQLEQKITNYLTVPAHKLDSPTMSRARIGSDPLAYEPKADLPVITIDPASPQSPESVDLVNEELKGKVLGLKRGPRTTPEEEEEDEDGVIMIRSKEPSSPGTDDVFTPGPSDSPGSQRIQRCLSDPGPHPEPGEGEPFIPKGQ

CS(=O)(=O)c1cc(C(=O)N=C(N)N)cc(-n2cccc2)c1 [Test compound (a), 2-[3-Methylsulfonyl-5-(pyrrol-1-yl)benzoyl]guanidine]
Ki: < 0.1 µM
